PMC10989010, “A panel of janus kinase inhibitors identified with anti-inflammatory effects protect mice from lethal influenza virus infection” (Antimicrobial Agents and Chemotherapy, 2024)
Structures can show the parent of a compound that is named as a salt.

Legend:
[1] = system: neutrophils and macrophages; test: Flow cytometry of BALF cells of infected mice; type: in vivo; settings: 20 mg/kg/d, day 7 p.i.
Method: The mouse was euthanized and affixed onto a surgical plate, followed by disinfection of the neck using 70% ethanol. An incision was made on the neck skin using scissors to expose the trachea. Subsequently, a 0.2 cm incision was created on the trachea with surgical scissors, and a gavage needle was carefully inserted into it. The trachea was tied around the needle using cotton thread to secure the needle in place. Then, sterile PBS solution loaded in a 1 mL syringe was gently injected into the lung. The thorax of the mouse was massaged to facilitate even distribution of the solution before careful aspiration. Following the removal of the syringe from the needle, lavage fluid obtained from this process was transferred to an ice-cooled 1.5 mL tube for further processing or stored at −80℃ for subsequent analysis. Finally, resuspension and staining of cell pellet obtained after centrifugation of lavage fluid for 10 minutes at 1,000 × g and 4℃ were performed for subsequent analysis using flow cytometry ([45]).
BALF samples were washed with FACS (fluorescence-activated cell sorting) buffer (2% BSA in PBS), followed by red blood cell lysis using Red Cell Lysis Buffer (Tiangen, Beijing, China). For the surface staining, cells were stained with the following fluorochrome-labeled antibodies (Biolegend, San Diego, USA): PE-Cy7-conjugated Ly6C (clone HK1.4, dilution 1:200), PE-conjugated CD11b (clone M1/70, dilution 1: 200), APC-conjugated Ly6G (clone 1A8, dilution 1: 200), and FITC-conjugated CD11c (clone N418, dilution 1: 100). Cells were washed with PBS twice and counterstained with 7AAD (Biolegend, San Diego, USA) to differentiate apoptotic and dead cells, then analyzed using a BD FACSVerse Cell Analyzer (BD, New Jersey, USA).

PR8 virus = test: Viral titers in BALF by TCID50 assay using MDCK cells; type: in vivo; settings: 300 TCID50; 20 mg/kg/d; day 7 p.i.; treated versus untreated mice
Method: Madin-Darby canine kidney (MDCK) cells (ATCC CCL-34™) were maintained in Dulbecco’s modified Eagle’s medium (DMEM, Gibco, Carlsbad, CA) supplemented with 10% fetal bovine serum (Gibco), 100 U/mL penicillin, and 100 µg/mL streptomycin. Human monocyte cell line U937 (CRL-1593.2) was cultured in RPMI 1640 medium supplemented with 10% fetal bovine serum (Gibco), 100 U/mL penicillin, and 100 µg/mL streptomycin. All these cells were maintained at 37℃ in a 5% CO2 incubator. […] The viral titers were measured using 50% tissue culture infective dose (TCID50) assay in MDCK cells. The 10-day-old embryonated chicken eggs were obtained from Guangdong Wens Dahuanong Biotechnology Co., Ltd (Guangdong, China). Six-week-old BALB/c mice were purchased from Guangdong Medical Laboratory Animal Center (GDMLAC, Guangdong, China) and housed under specific pathogen-free conditions.

U937 cells = test: Cytotoxicity assay (CellTiter-Glo); type: cell-based, human; settings: U937 cells; CellTiter-Glo; mean of three independent experiments
Method: The compound cytotoxicity was determined by CellTiter-Glo Assay (Promega, Madison, WI, USA). After adding 15 µL of CellTiter-Glo reagent to each well, plates were incubated at room temperature for 15 minutes with shaking. The luminescence intensity was determined by a multimode plate reader (Wallac Envision, PerkinElmer, MA, USA).

IP-10 = test: cells; type: cell-based, human; settings: Homo sapiens, U-937, 72 h, read-out: IC50 IP-10
[2] = system: TNF-α, RANTES, IP-10, IL-10, MIP-1α, IL-8, MCP-1, and IL-6; test: ELISA of pro-inflammatory cytokines and chemokines in BALF of infected mice; type: in vivo; settings: 300 TCID50; 20 mg/kg/d; day 7 p.i.; versus placebo
Method: Mouse IL-10 (Cat. No. 431414), IL-6 (Cat. No. 431304), and TNF-α (Cat. No. 430901) ELISA kits were obtained from BioLegend (San Diego, USA). Mouse IL-8 (CME0008), MCP-1 (CME0046), and IP-10 (CME0051) ELISA kits were purchased from 4A Biotech (Beijing, China). Mouse CCL3/MIP-1α (EK261/2-96) ELISA kit was bought from Multi Sciences (Hangzhou, China). Mouse CCL5/RANTES (BSEM-048–96T) ELISA kit was obtained from Biosharp (Hefei, China). The ELISA was conducted by following the manufacturer’s instructions.

[3] = system: influenza virus-specific IgG; test: Influenza virus-specific IgG in mouse serum (ELISA); type: in vivo, BALB/c mice; settings: 50 TCID50 PR8, 20 mg/kg twice daily for 5 days from 3 dpi, versus untreated
Method: The PR8 virus was purified and inactivated using β-Propiolactone (CAS: 57–57-8, MCE) at a 1:3,000 (vol/vol) ratio. The inactivated PR8 virus (2 µg in each well) was then coated onto a 96-well ELISA plate (Corning, USA) and left overnight at 4℃. Afterward, the plate was washed three times and blocked with 5% skimmed milk for 1 hour at 37℃. The plate was washed again three times and then incubated with 100 µL of serial diluted sera at 37 ℃ for 2 hours. Next, the plate was washed three times and incubated with 100 µL of 1,000-fold diluted (horseradish peroxidase) HRP-conjugated affinipure goat ant-mouse IgG (H + L; SA00001-1, Proteintech) at 37℃ for 1 hour. After washing the plate four times, 100 µL of TMB (3, 3', 5, 5'-tetramethylbenzidine) substrate was added to each well until the solutions turned blue, and then 50 µL of 2M H2SO4 was added to stop the reaction. Finally, the absorbance was read at OD450 nm using the Varioskan LUX multimode microplate reader (Thermo Scientific, Waltham, MA, USA) ([47]).

[4] = stated as reason for selection; no test or reference printed; cited from earlier work

## CNS(=O)(=O)C[C@H]1CC[C@H](N(C)c2ncnc3[nH]ccc23)CC1 [Oclacitinib maleate]
[1]; BALF flow cytometry, versus placebo
  number of neutrophils and macrophages in the lungs: reduce the number of neutrophils and macrophages
[1]; Fig 4B, 300 TCID50
  Ly6G- (flow cytometry gate, BALF): 81.6
  Macrophage (flow cytometry gate, BALF): 8.05
  Neurophil (flow cytometry gate, BALF): 15.2
PR8 virus
  viral titers in the BALF: no significant differences
U937 cells
  CC50: 50 µM
IP-10
  IC50: 0.18 µM
[2]
  production of all eight cytokines and chemokines (TNF-α, RANTES, IP-10, IL-10, MIP-1α, IL-8, MCP-1, IL-6) in BALF: significantly reduced
[3]; 7 dpi
  serum influenza virus-specific IgG production: significantly suppressed
[3]; 14 and 21 dpi
  serum influenza virus-specific IgG production: slight suppression
[4]
  water solubility: high water solubility
